Assay results: US8299049B2, “Compositions comprising an extract of Tiarella polyphylla or compounds isolated therefrom for preventing and treating cancer diseases” (Korea Institute of Bioscience and Biotechnology, priority 2007, dated 2012)

Assays:
[1] = test system: focal adhesion molecules in SNU449Cp cells expressing no TM4SF5; assay: Immunoblot of focal adhesion molecule expression and activation, SNU449Cp; type: cell-based
Method: Whole cell lysates from cells under diverse experimental conditions were prepared, as described in the literature (Lee, S. Y. et al., Focal adhesion and actin organization by a cross-talk of TM4SF5 with integrin α2 are regulated by serum treatment, Exp Cell Res, 312, pp. 2983-99, 2006). For example, cells were subjected to electroporation (950 μF, 250 V) with a control GFP, wild-type focal adhesion kinase (FAK), paxillin, p130Cas cDNA. One day after electroporation, cells were treated with TA (20 μM) for the indicated periods. Cells cultured normally or treated with TA at different concentrations for the indicated periods were harvested using RIPA buffer. Control or tumor tissues from nude mice were frozen immediately after surgery using liquid N2. Tissues in the liquid N2 was homogenized using a mortar and pestle, and extracted using 0.1% SDS containing RIPA buffer. Standard Western blots of lysates were performed by using antibody against phospho-Y^397, Y^407, Y^577, Y^861, Y^925 FAK (BioSource International, Inc., Camarillo, Calif.), phospho-Y^416Src, c-Src, p15^INK4B, p16^INK4A (Santa Cruz Biotech., Santa Cruz, Calif.), FAK, p130Cas, paxillin, pY^118paxillin, active caspase-3 (BD Transduct. Lab., San Jose, Calif.), α-tubulin (Sigma, St Louis, Mo.), phopsho-S^473, or T^308Akt, Akt, phospho-Erk1/2, Erk1/2 (Cell Signaling Tech., Danvers, Mass.), and TM4SF5 (homemade). […]

[2] = test system: TM4SF5-expressing cells (SNU449Tp, SNU449T16); assay: Degree of adhesion on fibronectin-precoated dishes, TM4SF5-expressing cells; type: cell-based; details: 20 μM TA 24 hr, reseeded on fibronectin 1 hr
Method: Thus, it could be thought that TA treatment induces anoikis of TM4SF5-expressing cells. To examine whether TA treatment affected cellular adhesion, the following procedure was performed prior to analysis of TA-meditated cell death, as described in the literature (Yang, X. et al., Palmitoylation supports assembly and function of integrin-tetraspanin complexes, J Cell Biol, 167, pp. 1231-40, 2004).
Cells were treated with 20 μM TA for 24 hr, and the floating cells were collected and reseeded on fibronectin-precoated dishes for 1 hr before determination of the degree of adhesion.

[3] = test system: SNU449Cp cells expressing no TM4SF5; assay: Number of floating cells, SNU449Cp; type: cell-based; details: TA versus DMSO
Description: FIG. 17 is a graph showing the number of floating SNU449Cp and SNU449Tp cells, after tiarellic acid (TA) treatment for various time periods;

[4] = test system: Akt, p15INK4B, p16INK4A, caspase-3 in TM4SF5-mediated tumor tissue; assay: Western blot and immunohistochemical staining of tumor tissue from nude mice; type: in vivo
Method: (§1) Whole cell lysates from cells under diverse experimental conditions were prepared, as described in the literature (Lee, S. Y. et al., Focal adhesion and actin organization by a cross-talk of TM4SF5 with integrin α2 are regulated by serum treatment, Exp Cell Res, 312, pp. 2983-99, 2006). For example, cells were subjected to electroporation (950 μF, 250 V) with a control GFP, wild-type focal adhesion kinase (FAK), paxillin, p130Cas cDNA. One day after electroporation, cells were treated with TA (20 μM) for the indicated periods. Cells cultured normally or treated with TA at different concentrations for the indicated periods were harvested using RIPA buffer. Control or tumor tissues from nude mice were frozen immediately after surgery using liquid N2. Tissues in the liquid N2 was homogenized using a mortar and pestle, and extracted using 0.1% SDS containing RIPA buffer. Standard Western blots of lysates were performed by using antibody against phospho-Y^397, Y^407, Y^577, Y^861, Y^925 FAK (BioSource International, Inc., Camarillo, Calif.), phospho-Y^416Src, c-Src, p15^INK4B, p16^INK4A (Santa Cruz Biotech., Santa Cruz, Calif.), FAK, p130Cas, paxillin, pY^118paxillin, active caspase-3 (BD Transduct. Lab., San Jose, Calif.), α-tubulin (Sigma, St Louis, Mo.), phopsho-S^473, or T^308Akt, Akt, phospho-Erk1/2, Erk1/2 (Cell Signaling Tech., Danvers, Mass.), and TM4SF5 (homemade).
(§2) 4-5 week old female nude mice (BALB/cAnNCrjBgi-nu) were purchased from Orient. Co. Ltd. (Seongnam, Korea). The mice were housed in a specific pathogen-free room under controlled temperature and humidity. All animal procedures were performed in accordance with the procedures in Seoul National University Laboratory Animal Maintenance Manual and with IRB agreement. Mice aged 5-6 weeks were injected subcutaneously with 5×10^6 viable SNU449Cp or SNU449T16 cells. Tumor volumes were measured with a caliper and calculated using the following Mathematical Formula 1. When the tumor volume reached 200 mm^3, mice were injected intraperitoneally with 3 mg/kg or 30 mg/kg (body weight) of tiarellic acid (TA) every other day for 30 days. (Width×Length^2)/2 [Mathematical Formula 1]
(§3) To evaluate whether tiarellic acid (TA) administration might interfere with TM4SF5 mediated tumor formation in nude mice, the following experiment was performed as described in the literature (Lee S-A et al., TM4SF5-mediated transmodulation between cytosolic p27Kip1 and Rho GTPases and epithelial-mesenchymal transition cause loss of contact inhibition, Cancer Cell, 2007).

[5] = test system: focal adhesion kinase (FAK), paxillin, p130Cas in TM4SF5-expressing SNU449T16 cells; assay: Immunoblot of focal adhesion molecule expression and activation, SNU449T16; type: cell-based
Method: as §1
To examine which signaling molecule is affected by tiarellic acid (TA), the following procedure was performed, as described in the literature (Lee, S. Y. et al., Focal adhesion and actin organization by a cross-talk of TM4SF5 with integrin α2 are regulated by serum treatment, Exp Cell Res, 312, pp. 2983-99, 2006).
The SNU449 cell lines were treated with tiarellic acid (TA) in a dose- (0, 1, 5, 20 μM) and time-dependent (0, 8, 16, 24, 36 hrs) manner.
The SNU449Cp and SNU449T16 cell lines were treated with tiarellic acid (TA) at varying concentrations (0, 1, 5, 20 μM) for 24 hrs, and then immunoblot assay was performed.

[6] = test system: SNU449T16 cells introduced with GFP control, wild-type FAK, paxillin or p130Cas cDNA; assay: TA-mediated effects under overexpression of focal adhesion molecules; type: cell-based
Method: as §1
To evaluate whether overexpression of focal adhesion molecules such as focal adhesion kinase (FAK), paxillin, and p130Cas would block the effects of TA treatment, the following procedure was performed as described in the literature (Lee, S. Y. et al., Focal adhesion and actin organization by a cross-talk of TM4SF5 with integrin α2 are regulated by serum treatment, Exp Cell Res, 312, pp. 2983-99, 2006).
To explore this, each cDNA was introduced into SNU449T16 cells via electroporation. After 1 day, the cells were treated with 20 μM TA for 24 hrs to obtain lysates. […] Therefore, the TA-mediated effects on TM4SF5-expressing cells could be overcome to a certain degree by overexpression of focal adhesion molecules. On the other hand, changes in Erk1/2 activation were not observed under each experimental condition, thereby understanding TA-mediated effects on signal transduction in this experimental system.

[7] = test system: TM4SF5-expressing SNU449T16 cells tumors; assay: TM4SF5-mediated tumor formation in nude mice; type: in vivo; details: for tumor volumes decreased to: 30 days
Method: as §2
Width: minimal diameter (mm)
Length: maximal diameter (mm)
as §3

[8] = test system: focal adhesion molecules in cells lacking TM4SF5; assay: Focal adhesion molecule activation in TM4SF5-null cell lines; type: cell-based; details: FIG. 12
Method: as §1

[9] = test system: TM4SF5-expressing cells; assay: Immunofluorescence of focal adhesions and actin, TM4SF5-expressing cells; type: cell-based; details: 20 μM TA
Method: Cells were treated with DMSO or 20 μM TA for 24 hrs. Then, the cells were plated on 10 μg/ml fibronectin-precoated coverslips and incubated for 2 hrs in the presence of DMSO or 20 μM TA. Subsequently, immunofluorescence staining was performed using pY^397 FAK, pY^118 paxillin, and actin, as described in the literature (Lee, S. Y. et al., Focal adhesion and actin organization by a cross-talk of TM4SF5 with integrin α2 are regulated by serum treatment, Exp Cell Res, 312, pp. 2983-99, 2006). Mounted samples were visualized by a fluorescent microscope (BX51, Olympus, Japan).

[10] = Western blot, TA administration

C=C(C)C1CC[C@]2(C)CC[C@]3(C(=O)O)C(CCC4[C@@]5(C)CC[C@H](O)[C@@](C)(CO)C5CC[C@]43C)C12 (some centres unmarked) [tiarellic acid (TA), 3,23-dihydroxy-20(29)-lupen-27-oic acid]
pErk1/2 ([1]; FIG. 11): slightly increased
FAK and paxillin phosphorylations and p130Cas protein levels ([1]; TA up to 20 μM, 24 hrs): no effect
adhesion [2]: significantly reduced adhesions
number of floating cells [3]: did not affect
Akt activation in tumor tissue [4, 10]: decreased
caspase-3 activation in tumor tissue [4, 10]: enhanced
p15INK4B or p16INK4A CKI levels in tumor tissue [4, 10]: increased
immunohistochemical staining for active caspase-3 ([4]; tumor tissue from TA-treated mice): positive
p130Cas phosphorylation and physical association among FAK, p130Cas, and paxillin ([5]; FIG. 10, cell line not stated): decreased
FAK and paxillin phosphorylation and p130Cas protein levels over time ([5]; SNU449T16, 20 μM TA, 0, 8, 16, 24, 36 hrs): remarkably decreased in a time-dependent manner
FAK and paxillin phosphorylations and p130Cas protein levels ([5]; SNU449T16, 20 μM TA, 24 hrs): reduced
TA-mediated increases in the sub-G1 population under overexpression ([6]; SNU449T16 overexpressing focal adhesion molecules): blocked
focal adhesion molecule and caspase-3 activity ([6]; SNU449T16 with control plasmid (GFP), 20 μM TA): time-dependent inactivation of focal adhesion molecules and activation of caspase-3
TA-mediated effects under overexpression ([6]; SNU449T16 with wild-type FAK, paxillin, or p130Cas, 20 μM TA): certain degrees of blocking
changes in Erk1/2 activation ([6]; each experimental condition): not observed
tumor volumes decreased to ([7]; 3 mg/kg body weight i.p. every other day): 46.0%
tumor volumes decreased to ([7]; 30 mg/kg body weight i.p. every other day): 22.1%
TM4SF5-mediated tumor formation ([7]; intraperitoneally every other day for 30 days, established tumors ~200 mm^3): decreased
inhibitory effects on focal adhesion molecule activation [8]: not
focal adhesions [9]: lost
